Test results taken from PMC4867306 (European journal of medicinal chemistry, 2016).
Entries after “also recorded” stand apart in the source; their conditions may differ. Like-named read-outs stand apart in the source and are kept apart here.

Experiments:
[1] = target: T1, NmAPN (M1 alanine aminopeptidase from Neisseria meningitidis) (Neisseria meningitidis, UniProt Q9JYV4)
T1 sequence (Q9JYV4 1-867): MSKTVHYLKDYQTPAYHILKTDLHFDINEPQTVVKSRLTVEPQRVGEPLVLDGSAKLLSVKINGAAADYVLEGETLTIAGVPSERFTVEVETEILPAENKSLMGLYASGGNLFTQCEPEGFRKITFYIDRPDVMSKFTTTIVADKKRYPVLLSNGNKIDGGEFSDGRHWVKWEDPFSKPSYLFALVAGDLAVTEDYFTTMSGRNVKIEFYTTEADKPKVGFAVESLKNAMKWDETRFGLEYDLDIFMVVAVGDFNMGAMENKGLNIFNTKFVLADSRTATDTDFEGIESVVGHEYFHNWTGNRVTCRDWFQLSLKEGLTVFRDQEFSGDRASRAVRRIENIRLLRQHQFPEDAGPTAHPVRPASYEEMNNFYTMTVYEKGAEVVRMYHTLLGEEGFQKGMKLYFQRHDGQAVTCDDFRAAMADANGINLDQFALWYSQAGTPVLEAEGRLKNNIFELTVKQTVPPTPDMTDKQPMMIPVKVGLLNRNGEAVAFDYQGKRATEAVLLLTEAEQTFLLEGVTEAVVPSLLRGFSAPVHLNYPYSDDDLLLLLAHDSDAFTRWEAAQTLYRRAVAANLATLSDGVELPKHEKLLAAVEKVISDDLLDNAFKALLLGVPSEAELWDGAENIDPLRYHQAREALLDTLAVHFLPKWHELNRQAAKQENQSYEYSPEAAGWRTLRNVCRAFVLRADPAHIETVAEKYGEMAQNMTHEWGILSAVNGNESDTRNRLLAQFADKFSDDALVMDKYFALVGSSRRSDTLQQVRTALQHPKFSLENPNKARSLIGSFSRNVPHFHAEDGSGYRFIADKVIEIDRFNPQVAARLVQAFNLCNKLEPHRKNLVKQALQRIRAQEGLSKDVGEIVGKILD

[2] = target: T2, LAP (M17 leucine aminopeptidase) (Sus scrofa, UniProt P28839); assay: Inhibition of porcine kidney leucine aminopeptidase; assay type: biochemical
T2 sequence (P28839 33-519 limits assumed): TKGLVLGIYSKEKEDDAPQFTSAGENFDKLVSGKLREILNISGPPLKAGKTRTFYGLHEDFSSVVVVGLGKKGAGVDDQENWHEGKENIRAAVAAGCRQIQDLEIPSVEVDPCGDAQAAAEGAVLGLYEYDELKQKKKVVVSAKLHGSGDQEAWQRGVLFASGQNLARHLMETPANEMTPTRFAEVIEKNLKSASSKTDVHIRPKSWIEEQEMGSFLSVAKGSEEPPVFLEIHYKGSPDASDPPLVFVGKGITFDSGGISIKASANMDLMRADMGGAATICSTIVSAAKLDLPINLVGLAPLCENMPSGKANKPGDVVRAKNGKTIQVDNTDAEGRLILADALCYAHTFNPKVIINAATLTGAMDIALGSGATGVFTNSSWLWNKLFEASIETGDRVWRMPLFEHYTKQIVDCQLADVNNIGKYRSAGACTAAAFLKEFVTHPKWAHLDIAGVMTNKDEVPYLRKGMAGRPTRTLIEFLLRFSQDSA

[3] = target: T2, LAP (M17 leucine aminopeptidase); conditions: originally measured activity; NI = no inhibition up to 0.8 mM inhibitor concentration; cited from earlier work
[4] = target: T1, NmAPN (M1 alanine aminopeptidase from Neisseria meningitidis); conditions: read-out: Ki NmAPN; cited from earlier work

With `COc1ccc(CNCC(N)P(=O)(O)O)cc1` (centres unmarked) [1s] the “improvement of affinity compared with non-modified analogue 1n” value [1] was 3-to-4 fold.

In the case of `Nc1ccc(CNCC(N)P(=O)(O)O)cc1` (centres unmarked) [1r], the “improvement of affinity compared with non-modified analogue 1n” value [1] is reported as 3-to-4 fold.

`NC(CN1CCOCC1)P(=O)(O)O` (centres unmarked) [1w] showed a Ki ([2]; read-out: Ki LAP, NI = no inhibition up to 0.8 mM inhibitor concentration) of over 800 µM.

In the case of `CCCNCC(N)P(=O)(O)O` (centres unmarked) [1c], the “Ki LAP” value [3] is given as “inactive; also recorded: do not inhibit LAP at all”.

With `NC(CNCC1CCCO1)P(=O)(O)O` (centres unmarked) [1k] the Ki [2] was 2.5 to 7 µM.

In the case of `CC(C)CNCC(N)P(=O)(O)O` (centres unmarked) [1d], the “Ki LAP” value [3] is given as “inactive; also recorded: do not inhibit LAP at all”.

In the case of `NC(CNC1CCCCC1)P(=O)(O)O` (centres unmarked) [1h, N-cyclohexyl-1,2-diaminoethylphosphonic acid], the “Ki LAP” value [3] is listed as “does not influence the LAP activity at all; also recorded: inactive; also recorded: do not inhibit LAP at all”.

In the case of `NC(CCc1ccccc1)P(=O)(O)CC(Cc1ccccc1)C(=O)O` (centres unmarked) [phosphinic analogue of hPhePhe], the Ki [4] is given as 302 nM.
